# ChEMBL document CHEMBL1127842, “The desferrithiocin pharmacophore” (1994)
# Where “and” joins values, the source holds several entries; their conditions need not be identical. Identical values can stand only once. Calls of active or inactive are those of the source. The calls are words filed in the database; no cut-off is given here.
# Legend:
# [1] = organism: Rattus norvegicus; experiment: Efficiency of iron clearance was determined; type: functional; design: concentration or dose not given beside the values
# [2] = tested on: Rattus norvegicus; experiment: Tested for Iron clearance of compound, when administered subcutaneously at a dose 150 umol/kg in bile duct cannulated rat; type: functional; conditions: in the assay text read “orally” for “subcutaneously”
# [3] = tested on: Rattus norvegicus; experiment: Tested for Iron clearance of compound, when administered orally at a dose 150 umol/kg in bile duct cannulated rat; Inactive
# [4] = organism: Rattus norvegicus; experiment: Tested for formation constant of the compound; type: functional
SMILES,Efficiency [1],Iron clearence [2] [µg/kg],Iron clearence [3],Kf [4] [M⁻¹]
CN(O)C(=O)[C@H]1CSC(c2ncccc2O)=N1,3.1%,–,–,–
O=C(O)[C@@H]1CSC(c2ncccc2O)=N1,3.9%,166,–,–
CC(=O)N(O)CCCCCNC(=O)CCC(=O)N(O)CCCCCNC(=O)CCC(=O)N(O)CCCCCN [DEFEROXAMINE],2.8% and 1%,–,–,–
O=C(O)C1CCSC(c2ncccc2O)=N1 (stereo not drawn),–,–,inactive,–
O=C(O)[C@H]1CSC(c2ncccc2O)=N1,2.4%,101,–,4e+29
